# Assay results from US8124793B2, “Derivatives of ethylene methanedisulfonate as cancer chemotherapeutic agents” (priority 2007, dated 2012).
# Tests used:
# Format in all cases: cell-based
# LOXIMVI = experiment: NCI screen, growth of human tumor cells: Melanoma LOXIMVI; settings: LOXIMVI (Melanoma), 10^−4 molar
# Protocol: (§1) In the NCI screening process, each compound was tested and described by a minimum of 60 data points. The test data include, but are not limited to the type of cancer, the molar concentration used in the screen, and the percent growth of the cancer. In some cases, NMR and elemental analysis were used for structural assignment.
# HCT-116 = experiment: NCI screen, growth of human tumor cells: Colon Cancer HCT-116; settings: HCT-116 (Colon Cancer), 10^−4 molar
# Protocol: as §1
# PC-3 = experiment: NCI screen, growth of human tumor cells: Prostate Cancer PC-3; settings: PC-3 (Prostate Cancer), 10^−4 molar
# Protocol: as §1
# K562 = experiment: NCI screen, growth of human tumor cells: Leukemia K562; settings: K562 (Leukemia), 10^−4 molar
# Protocol: as §1
# human cancer cells = experiment: NCI screen summary over the cancers tested (negative growth of human cancer cells); settings: 10^−4 M conc.; cancers with negative growth / cancers tested
# Protocol: as §1
# The derivatives in the tables are grouped using the same category as in the tables 1-6.
# MDA-MB-231/ATCC = experiment: NCI screen, growth of human tumor cells: Breast Cancer MDA-MB-231/ATCC; settings: MDA-MB-231/ATCC (Breast Cancer), 10^−4 molar
# Protocol: as §1
# HCT-15 = experiment: NCI screen, growth of human tumor cells: Colon Cancer HCT-15
# Protocol: as §1
# COLO205 = experiment: NCI screen, growth of human tumor cells: Colon Cancer COLO205; settings: COLO205 (Colon Cancer), 10^−4 molar
# Protocol: as §1
# NCI-H460 = experiment: NCI screen, growth of human tumor cells: Non-Small Cell Lung NCI-H460; settings: NCI-H460 (Non-Small Cell Lung), 10^−4 molar
# Protocol: as §1
# ACHN = experiment: NCI screen, growth of human tumor cells: Renal Cancer ACHN; settings: ACHN (Renal Cancer), 10^−4 molar
# Protocol: as §1
# NCI-H23 = experiment: NCI screen, growth of human tumor cells: Non-Small Cell Lung NCI-H23; settings: NCI-H23 (Non-Small Cell Lung), 10^−4 molar
# Protocol: as §1
# MCF7/ADR-RES = experiment: NCI screen, growth of human tumor cells: Breast Cancer MCF7/ADR-RES; settings: MCF7/ADR-RES (Breast Cancer), 10^−4 molar
# Protocol: as §1
# OVCAR-8 = experiment: NCI screen, growth of human tumor cells: Ovarian Cancer OVCAR-8; settings: OVCAR-8 (Ovarian Cancer), 10^−4 molar
# Protocol: as §1
# M14 = experiment: NCI screen, growth of human tumor cells: Melanoma M14; settings: M14 (Melanoma), 10^−4 molar
# Protocol: as §1
# OVCAR-3 = experiment: NCI screen, growth of human tumor cells: Ovarian Cancer OVCAR-3; settings: OVCAR-3 (Ovarian Cancer), 10^−4 molar
# Protocol: as §1
# CAKI-1 = experiment: NCI screen, growth of human tumor cells: Renal Cancer CAKI-1; settings: CAKI-1 (Renal Cancer), 10^−4 molar
# Protocol: as §1
# EKVX = experiment: NCI screen, growth of human tumor cells: Non-Small Cell Lung EKVX; settings: EKVX
# Protocol: as §1
# IGROVI = experiment: NCI screen, growth of human tumor cells: Ovarian Cancer IGROVI; settings: for % Growth: IGROVI
# Protocol: as §1
# MCF 7 = experiment: NCI screen, growth of human tumor cells: Breast Cancer MCF 7; settings: MCF 7 (Breast Cancer), 10^−4 molar
# Protocol: as §1
# MALME-3M = experiment: NCI screen, growth of human tumor cells: Melanoma MALME-3M; settings: MALME-3M (Melanoma), 10^−4 molar
# Protocol: as §1
# SF-268 = experiment: NCI screen, growth of human tumor cells: CNS Cancer SF-268; settings: SF-268 (CNS Cancer), 10^−4 molar
# Protocol: as §1
# OVCAR-4 = experiment: NCI screen, growth of human tumor cells: Ovarian Cancer OVCAR-4; settings: OVCAR-4 (Ovarian Cancer), 10^−4 molar
# Protocol: as §1
# HS 578T = experiment: NCI screen, growth of human tumor cells: Breast Cancer HS 578T; settings: HS 578T (Breast Cancer), 10^−4 molar
# Protocol: as §1
# SK-MEL-5 = experiment: NCI screen, growth of human tumor cells: Melanoma SK-MEL-5; settings: SK-MEL-5 (Melanoma), 10^−4 molar
# Protocol: as §1
# HCC-2998 = experiment: NCI screen, growth of human tumor cells: HCC-2998 (listed under Non-Small Cell Lung)
# Protocol: as §1
# NCI-H522 = experiment: NCI screen, growth of human tumor cells: Non-Small Cell Lung NCI-H522; settings: NCI-H522 (Non-Small Cell Lung), 10^−4 molar
# Protocol: as §1
# HOP-92 = experiment: NCI screen, growth of human tumor cells: Non-Small Cell Lung HOP-92; settings: HOP-92 (Non-Small Cell Lung), 10^−4 molar
# Protocol: as §1
# UACC-62 = experiment: NCI screen, growth of human tumor cells: Melanoma UACC-62; settings: UACC-62 (Melanoma), 10^−4 molar
# Protocol: as §1
# SNB-75 = experiment: NCI screen, growth of human tumor cells: CNS Cancer SNB-75; settings: SNB-75 (CNS Cancer), 10^−4 molar
# Protocol: as §1
# UACC-257 = experiment: NCI screen, growth of human tumor cells: Melanoma UACC-257; settings: UACC-257 (Melanoma), 10^−4 molar
# Protocol: as §1
# BT-549 = experiment: NCI screen, growth of human tumor cells: Breast Cancer BT-549; settings: BT-549 (Breast Cancer), 10^−4 molar
# Protocol: as §1
# DU-145 = experiment: NCI screen, growth of human tumor cells: Prostate Cancer DU-145; settings: DU-145 (Prostate Cancer), 10^−4 molar
# Protocol: as §1
# SN12C = experiment: NCI screen, growth of human tumor cells: Renal Cancer SN12C; settings: SN12C (Renal Cancer), 10^−4 molar
# Protocol: as §1
# MDA-MB-435 = experiment: NCI screen, growth of human tumor cells: Breast Cancer MDA-MB-435; settings: for percent of growth of human tumor cells: MDA-MB-435 (Breast Cancer), 10^−4 molar
# Protocol: as §1
# U-251 = experiment: NCI screen, growth of human tumor cells: CNS Cancer U-251; settings: U-251 (CNS Cancer), 10^−4 molar
# Protocol: as §1
# HL-60 (TB) = experiment: NCI screen, growth of human tumor cells: Leukemia HL-60 (TB); settings: HL-60 (TB) (Leukemia), 10^−4 molar
# Protocol: as §1
# UO-31 = experiment: NCI screen, growth of human tumor cells: Renal Cancer UO-31; settings: UO-31 (Renal Cancer), 10^−4 molar
# Protocol: as §1
# MOLT-4 = experiment: NCI screen, growth of human tumor cells: Leukemia MOLT-4
# Protocol: as §1
# HOP-62 = experiment: NCI screen, growth of human tumor cells: Non-Small Cell Lung HOP-62; settings: HOP-62, 10^−4 molar
# Protocol: as §1
# SR = experiment: NCI screen, growth of human tumor cells: Leukemia SR; settings: SR
# Protocol: as §1
# CCRF-CEM = experiment: NCI screen, growth of human tumor cells: Leukemia CCRF-CEM; settings: CCRF-CEM (Leukemia), 10^−4 molar
# Protocol: as §1
# KD488 = experiment: NCI screen, growth of human tumor cells: Lymphoma KD488
SMILES,percent of growth of human tumor cells (LOXIMVI) [%],percent of growth of human tumor cells (HCT-116) [%],percent of growth of human tumor cells (PC-3) [%],percent of growth of human tumor cells (K562) [%],Percentage of cancers showing negative growth cancers tested (human cancer cells),percent of growth of human tumor cells (COLO205) [%],percent of growth of human tumor cells (NCI-H460) [%],percent of growth of human tumor cells (NCI-H23) [%],percent of growth of human tumor cells (MCF7/ADR-RES) [%],percent of growth of human tumor cells (M14) [%],percent of growth of human tumor cells (OVCAR-3) [%],percent of growth of human tumor cells (MCF 7) [%],percent of growth of human tumor cells (MALME-3M) [%],percent of growth of human tumor cells (HS 578T) [%],percent of growth of human tumor cells (NCI-H522) [%],percent of growth of human tumor cells (DU-145) [%],percent of growth of human tumor cells (HL-60 (TB)) [%],percent of growth of human tumor cells (UO-31) [%],percent of growth of human tumor cells (MDA-MB-435) [%],% Growth (SR; 10^−4 molar) [%],other results
O=S1(=O)OCCOS(=O)(=O)[C-]1S(=O)(=O)c1cccc2ccccc12.[Na+] [NSC 679044],23,−52,23,15,10^−4 M conc. = 1/4 = 25%,,,,,,,,,,,,,,,,
O=C(c1ccccc1S(=O)(=O)O)C1S(=O)(=O)OCCOS1(=O)=O [NSC 693880],,20,5,,10^−4 M conc. = 8/17 = 47%,5,−11,12,4,−4,76,−1,−15,,,,,,,,"percent of growth of human tumor cells (MDA-MB-231/ATCC): 25%; % Growth (HCT-15; HCT-15, 10^−4 molar): −41%; % Growth (HCT-15; HCT-15, 10^−5 molar): 40%; percent of growth of human tumor cells (ACHN): 8%; percent of growth of human tumor cells (OVCAR-8): −33%; percent of growth of human tumor cells (CAKI-1): −8%; % Growth (EKVX; 10^−4 molar): 25%; % Growth (EKVX; 10^−5 molar): 6%; % Growth (IGROVI; 10^−4 molar): −21%; % Growth (IGROVI; 10^−5 molar): 37%; % Growth (IGROVI; 10^−6 molar): 60%"
CCOCC1(CC2=C(C)C(=O)c3ccccc3C2=O)S(=O)(=O)OCCOS1(=O)=O [NSC 698124],−55,,,,10^−4 M conc. = 8/25 = 32%,−25,11,16,30,,−17,19,−9,27,−45,27,,,,,"percent of growth of human tumor cells (SF-268): 20%; percent of growth of human tumor cells (HCT-15; HCT-15 (Colon Cancer), 10^−4 molar): 15%; percent of growth of human tumor cells (OVCAR-4): 14%; percent of growth of human tumor cells (SK-MEL-5): 9%; percent of growth of human tumor cells (HCC-2998; HCC-2998 (under Non-Small Cell Lung), 10^−4 molar): 8%; percent of growth of human tumor cells (HOP-92): 27%; percent of growth of human tumor cells (UACC-62): −32%; percent of growth of human tumor cells (SNB-75): 11%; percent of growth of human tumor cells (UACC-257): 12%; percent of growth of human tumor cells (BT-549): 27%; percent of growth of human tumor cells (SN12C): −25%; % Growth (MDA-MB-435; MDA-MB-435, 10^−4 molar): −74%; percent of growth of human tumor cells (IGROVI; IGROVI (Ovarian Cancer), 10^−4 molar): 6%; percent of growth of human tumor cells (U-251): 20%"
CC1=C(CC2(C(=O)C(=O)OCC3COC(C)(C)O3)S(=O)(=O)OCCOS2(=O)=O)C(=O)c2ccccc2C1=O (centres unmarked) [NSC 737277],,,,5,10^−4 M conc. = 6/9 = 67%,−8,,,,,,,,24,,,−33,22,−11,−25,"percent of growth of human tumor cells (MOLT-4; MOLT-4 (Leukemia), 10^−4 molar): −12%; % Growth (HOP-62): −84%; % Growth (SR; 10^−5 molar): 50%"
CC1(C)OCC(COC(=O)C(=O)C2(C3=C(Cl)C(=O)c4ccccc4C3=O)S(=O)(=O)OCCOS2(=O)=O)O1 (centres unmarked) [NSC 737278],,,,12,10^−4 M conc. = 8/12 = 67%,−9,,,,−4,,,,,−30,6,−25,4,−45,−37,"% Growth (HCC-2998; HCC-2998, 10^−4 molar): −15%; % Growth (HCC-2998; HCC-2998, 10^−5 molar): 41%; % Growth (HCC-2998; HCC-2998, 10^−6 molar): 45%; % Growth (HCC-2998; HCC-2998, 10^−7 molar): 64%; % Growth (MOLT-4; MOLT-4, 10^−4 molar): −41%; % Growth (MOLT-4; MOLT-4, 10^−5 molar): 53%; % Growth (SR; 10^−5 molar): 20%; % Growth (SR; 10^−6 molar): 33%; % Growth (SR; 10^−7 molar): 56%; percent of growth of human tumor cells (CCRF-CEM): 22%"
O=C(c1cccc2ccccc12)C1(Br)S(=O)(=O)OCCOS1(=O)=O [compound 679048],,,,,,,,,,,,,,,,,,,,,"% Growth (KD488; KD488, 10^−4 molar): 54%; % Growth (KD488; KD488, 10^−5 molar): 51%; % Growth (KD488; KD488, 10^−6 molar): 34%; % Growth (KD488; KD488, 10^−7 molar): 100%; % Growth (KD488; KD488, 10^−8 molar): 52%"
